The values that follow come from paper PMC3351444, “Molecular Evolution of a Peptide GPCR Ligand Driven by Artificial Neural Networks” (PLoS ONE, 2012).

The target in one series is T1, human CMKLR1 (Homo sapiens, UniProt Q99788).
T1 construct: host or cells: HEK293A (Invitrogen), stably expressing human Gα15
T1 sequence (Q99788 1-373): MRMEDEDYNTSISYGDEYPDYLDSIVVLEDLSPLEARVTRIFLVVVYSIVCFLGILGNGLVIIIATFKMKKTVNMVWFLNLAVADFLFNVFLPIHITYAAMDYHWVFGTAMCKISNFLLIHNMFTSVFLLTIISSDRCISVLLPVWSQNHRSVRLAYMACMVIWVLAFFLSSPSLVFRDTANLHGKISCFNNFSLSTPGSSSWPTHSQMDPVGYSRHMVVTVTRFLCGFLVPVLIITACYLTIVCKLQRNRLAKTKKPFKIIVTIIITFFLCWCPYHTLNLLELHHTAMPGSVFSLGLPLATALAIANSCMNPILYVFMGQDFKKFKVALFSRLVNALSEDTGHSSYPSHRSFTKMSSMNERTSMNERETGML
The series can be described thus: Ca2+ mobilization (CellLux imaging) agonist assay in HEK293A cells expressing CMKLR1 and Gα15. Format: cell-based. In short, it runs like this:
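Agonist-evoked Ca2+ rise, read as FLUO4-AM fluorescence by imaging, in HEK293A cells carrying CMKLR1 plus Gα15. Peptides were diluted in C1 solution (pH 7.4) containing 0.1% BSA. Duplicate signals were averaged, corrected for buffer wells and normalized to background, and EC50 was fitted from amplitude versus concentration.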
Background: Calcium assays in cells follow changes in intracellular calcium, usually with a dye or a luminescent sensor.

The nature of series [1]: In vitro peptide stability in human serum (RP-HPLC). The note with it: for half-life at 50 µg/mL: human, human serum, 25% (v/v) in RPMI.
Method: The initial time is recorded, and at known time intervals 50 µL of the reaction solution is removed and added to 100 µL of 6% aqueous trichloroacetic acid (TCA) for precipitation of serum proteins. […] The reaction supernatant is then analyzed using RP-HPLC (Agilent 1200 LC System) on a ZORBAX Eclipse XDB-C18, 4.6×150 mm, 5 µm column (Agilent). […] Fluorescence is detected at an excitation wavelength of 280 nm and emission wavelength of 340 nm. Kinetic analysis was carried out by least-squares analysis of the logarithm of the integration peak area versus time.
The mark [2] stands for this setting: Ca2+ mobilization, CMKLR1, decimal comma.
The mark [3] stands for this setting: intracellular calcium mobilization, HEK293 cells expressing CMKLR1, mean of three independent experiments ± SD, read-out: activity: EC50 ±SD.
Where [4] appears, read: Ca2+ mobilization, CMKLR1, decimal comma, NR where no EC50 is given, read-out: EC50.

Read-outs that look alike come from different tables or passages of the source. Square brackets hold non-standard residues; d marks the D form. Ends that are not written are not given here. Peptide text beside a SMILES is read from it.

Regarding `CC(C)C[C@H](NC(=O)[C@@H](N)Cc1ccc(O)cc1)C(=O)N1CCC[C@H]1C(=O)N[C@H](CCC(N)=O)C(=O)N[C@@H](CCC(N)=O)C(=O)N[C@@H](Cc1ccc(O)cc1)C(=O)N[C@@H](C)C(=O)N[C@@H](Cc1ccccc1)C(=O)N[C@H](Cc1ccccc1)C(=O)O` [compound 123] (H-YLP[dQ]QYAF[dF]-OH; N-terminus assumed), the max response on human CMKLR1 (setting [2]) is listed as 1,74 DF/F0. In addition, the t1/2 in series [1] (metabolic stability in human serum) came out at 87 min.
One may read the EC50 as the concentration that produces a half-maximal response. Usually half-life stands for how long it takes for the measured level to halve. Read a low half-life as rapid decline. For the compound `C[C@H](NC(=O)[C@H](Cc1ccc(O)cc1)NC(=O)[C@H](CCC(N)=O)NC(=O)CNC(=O)[C@@H]1CCCN1C(=O)[C@H](CCCNC(=N)N)NC(=O)[C@@H](N)Cc1ccc(O)cc1)C(=O)N[C@@H](Cc1ccccc1)C(=O)N[C@H](CO)C(=O)O` (H-YRPGQYAF[dS]-OH; N-terminus assumed), the EC50 at human CMKLR1 (setting [3]) turned out to be 8.62 ± 5.01 nM. Further, the half-life at 50 µg/mL in series [1] is 21 ± 4 min.
Turning to `CC(C)C[C@H](NC(=O)[C@@H](N)Cc1ccc(O)cc1)C(=O)N1CCC[C@H]1C(=O)N[C@H](Cc1ccc(O)cc1)C(=O)N[C@H](CCC(N)=O)C(=O)N[C@@H](Cc1ccc(O)cc1)C(=O)N[C@@H](C)C(=O)N[C@@H](CCC(N)=O)C(=O)N[C@H](Cc1ccccc1)C(=O)O` [compound 150] (H-YLP[dY][dQ]YAQ[dF]-OH; N-terminus assumed), the max response on human CMKLR1 (setting [2]) was 1,35 DF/F0. The EC50 at human CMKLR1 (setting [4]) was 284 nM. The same compound came in with a half-life at 50 µg/mL in series [1] of 62 min.
For `CC(C)C[C@H](NC(=O)[C@@H]1CCCN1C(=O)[C@@H]1CCCN1)C(=O)N[C@H](Cc1c[nH]c2ccccc12)C(=O)N[C@@H](CCC(N)=O)C(=O)N[C@@H](Cc1ccc(O)cc1)C(=O)N[C@@H](C)C(=O)N[C@H](CC(=O)O)C(=O)N[C@H](CO)C(=O)O` [compound 153] (H-PPL[dW]QYA[dD][dS]-OH; N-terminus assumed) the same measures were 1,31 DF/F0, 313 nM and 86 min.
With `NC(=O)CC[C@H](NC(=O)CNC(=O)[C@@H]1CCCN1C(=O)[C@H](Cc1ccccc1)NC(=O)[C@H](N)Cc1ccc(O)cc1)C(=O)N[C@@H](Cc1ccc(O)cc1)C(=O)N[C@H](Cc1c[nH]c2ccccc12)C(=O)N[C@@H](Cc1ccccc1)C(=O)N[C@H](Cc1ccccc1)C(=O)O` [compound 133] (H-[dY]FPGQY[dW]F[dF]-OH; N-terminus assumed), at human CMKLR1 (setting [2]), the max response is given as 1,62 DF/F0. Further, the concentration for a half-maximal effect (EC50) at human CMKLR1 (setting [4]) was determined as 67.4 nM. The same compound returned a half-life at 50 µg/mL in series [1] of 20 min.
Take YLPGYLPGH-OH [compound 77]: the max response on human CMKLR1 (setting [2]) was 1,04 DF/F0. On human CMKLR1 (setting [4]), the EC50 was 217000 nM. The compound also had a half-life at 50 µg/mL in series [1] of 17 min.
Take PGPGQFAFF-OH [compound 59]: the max response on human CMKLR1 (setting [2]) is listed as 0,9 DF/F0. Further, the EC50 on human CMKLR1 (setting [4]) worked out at 335 nM. Also, in series [1], the half-life at 50 µg/mL turned out to be 80 min.
Taken in the same sequence, the figures for `CC(C)C[C@H](NC(=O)[C@@H](N)Cc1ccc(O)cc1)C(=O)N1CCC[C@H]1C(=O)N[C@H](Cc1c[nH]c2ccccc12)C(=O)N[C@@H](CCC(N)=O)C(=O)N[C@@H](Cc1ccc(O)cc1)C(=O)N[C@@H](C)C(=O)N[C@@H](Cc1ccccc1)C(=O)N[C@H](Cc1ccccc1)C(=O)O` [compound 127] (H-YLP[dW]QYAF[dF]-OH; N-terminus assumed) were 1,52 DF/F0, 35.6 nM and 124 min.
Regarding `CC(C)C[C@H](NC(=O)[C@@H](N)Cc1ccc(O)cc1)C(=O)N1CCC[C@H]1C(=O)N[C@H](C)C(=O)N[C@@H](CCC(N)=O)C(=O)N[C@@H](Cc1ccc(O)cc1)C(=O)N[C@@H](C)C(=O)N[C@@H](Cc1ccccc1)C(=O)N[C@H](CO)C(=O)O` [YLPaQYAFs] (H-YLP[dA]QYAF[dS]-OH; N-terminus assumed), at human CMKLR1 (setting [3]), the concentration giving a half-maximal response (EC50) was 4.42 ± 3.41 nM. This compound also came in with a half-life at 50 µg/mL in series [1] of 110 ± 26 min.
With `CC(C)[C@H](NC(=O)[C@@H](N)Cc1ccc(O)cc1)C(=O)N1CCC[C@H]1C(=O)NCC(=O)N[C@@H](CCC(N)=O)C(=O)N[C@@H](Cc1ccc(O)cc1)C(=O)N[C@@H](C)C(=O)N[C@@H](Cc1ccccc1)C(=O)N[C@H](CO)C(=O)O` [compound 86] (H-YVPGQYAF[dS]-OH; N-terminus assumed), the max response at human CMKLR1 (setting [2]) is reported as 1,57 DF/F0. For the same compound, the EC50 at human CMKLR1 (setting [4]) stood at 21.8 nM. In addition, in series [1], the half-life at 50 µg/mL turned out to be 24 min.
Taken in the same sequence, the figures for `CC(C)C[C@H](NC(=O)[C@@H](N)Cc1ccc(O)cc1)C(=O)N1CCC[C@H]1C(=O)NCC(=O)N[C@@H](CCC(N)=O)C(=O)N[C@@H](Cc1ccc(O)cc1)C(=O)N[C@@H](C)C(=O)N[C@@H](Cc1ccc(O)cc1)C(=O)N[C@H](CO)C(=O)O` [compound 87] (H-YLPGQYAY[dS]-OH; N-terminus assumed) were 1,62 DF/F0, 27.5 nM and 49 min.
For `CC(C)[C@H](NC(=O)[C@H](N)Cc1ccc(O)cc1)C(=O)N1CCC[C@H]1C(=O)NCC(=O)N[C@@H](CCC(N)=O)C(=O)N[C@@H](Cc1ccc(O)cc1)C(=O)N[C@@H](C)C(=O)N[C@@H](Cc1ccccc1)C(=O)N[C@@H](CO)C(=O)O` [compound 91] (H-[dY]VPGQYAFS-OH; N-terminus assumed), the max response at human CMKLR1 (setting [2]) is reported as 1,58 DF/F0. Further, the EC50 on human CMKLR1 (setting [4]) was 53.6 nM. Also, the half-life at 50 µg/mL in series [1] worked out at 151 min.
For the compound `CC(C)C[C@H](NC(=O)[C@@H]1CCCN1)C(=O)N1CCC[C@H]1C(=O)NCC(=O)N[C@@H](CCC(N)=O)C(=O)N[C@H](Cc1ccccc1)C(=O)N[C@@H](C)C(=O)N[C@@H](Cc1ccccc1)C(=O)N[C@@H](Cc1ccccc1)C(=O)O` [compound 58] (H-PLPGQ[dF]AFF-OH; N-terminus assumed), the max response on human CMKLR1 (setting [2]) is recorded as 0,81 DF/F0. The EC50 at human CMKLR1 (setting [4]) was 286 nM. In series [1], this compound gave a half-life at 50 µg/mL of 33 min.
With FLPGQYAFL-OH [compound 46], the max response on human CMKLR1 (setting [2]) is recorded as 1,06 DF/F0. For the same compound, at human CMKLR1 (setting [4]), the EC50 was 13.5 nM. The same compound registered a half-life at 50 µg/mL in series [1] of 28 min.
YLPGQYLFL-OH [compound 56]: at human CMKLR1 (setting [2]), the max response is listed as 0,57 DF/F0. Moreover, the EC50 on human CMKLR1 (setting [4]) turned out to be 114 nM. The half-life at 50 µg/mL in series [1] worked out at 19 min.
As for `CC(C)[C@H](NC(=O)[C@@H](N)Cc1ccc(O)cc1)C(=O)N1CCC[C@H]1C(=O)NCC(=O)N[C@@H](CCC(N)=O)C(=O)N[C@@H](Cc1ccccc1)C(=O)N[C@@H](C)C(=O)N[C@@H](Cc1ccccc1)C(=O)N[C@H](Cc1ccccc1)C(=O)O` (H-YVPGQFAF[dF]-OH; N-terminus assumed), on human CMKLR1 (setting [3]), the EC50 came to 4.17 ± 2.31 nM. In addition, in series [1], the half-life at 50 µg/mL was found to be 42 ± 19 min.
On to `CC(C)[C@H](NC(=O)[C@@H](Cc1ccc(O)cc1)NC(=O)[C@H](CO)NC(=O)[C@@H]1CCCN1)C(=O)N1CCC[C@H]1C(=O)NCC(=O)N[C@@H](CCC(N)=O)C(=O)N[C@@H](Cc1ccc(O)cc1)C(=O)N[C@@H](C)C(=O)O` [compound 107] (H-PS[dY]VPGQYA-OH; N-terminus assumed), for which, at human CMKLR1 (setting [2]), the max response is on record as 1,97 DF/F0. For the same compound, at human CMKLR1 (setting [4]), the EC50 is 1060 nM. In addition, the half-life at 50 µg/mL in series [1] is 362 min.
`C[C@H](NC(=O)[C@H](Cc1ccccc1)NC(=O)[C@H](C)NC(=O)[C@@H](N)Cc1ccccc1)C(=O)N[C@@H](Cc1ccccc1)C(=O)N[C@H](CO)C(=O)N[C@@H](Cc1ccccc1)C(=O)N[C@@H](C)C(=O)N[C@@H](Cc1ccc(O)cc1)C(=O)O` [compound 117] (H-FAFAF[dS]FAY-OH; N-terminus assumed): on human CMKLR1 (setting [2]), the max response was 0,87 DF/F0. Moreover, the EC50 at human CMKLR1 (setting [4]) worked out at 4450 nM. Also, the half-life at 50 µg/mL in series [1] stood at 26 min.
With `CC(C)C[C@H](NC(=O)[C@H](Cc1ccc(O)cc1)NC(=O)[C@@H](Cc1ccccc1)NC(=O)[C@@H]1CCCN1C(=O)[C@H](CC(C)C)NC(=O)[C@@H](N)Cc1ccc(O)cc1)C(=O)N1CCC[C@H]1C(=O)NCC(=O)N[C@H](Cc1ccccc1)C(=O)O` [compound 145] (H-YLP[dF]YLPG[dF]-OH; N-terminus assumed), the max response on human CMKLR1 (setting [2]) is 1,02 DF/F0. On human CMKLR1 (setting [4]), the concentration giving a half-maximal response (EC50) amounted to 150 nM. Also, the half-life at 50 µg/mL in series [1] was 40 min.
For `CC(C)C[C@H](NC(=O)[C@@H]1CCCN1)C(=O)N[C@H](CCC(N)=O)C(=O)N[C@@H](Cc1ccc(O)cc1)C(=O)N1CCC[C@H]1C(=O)N[C@@H](Cc1ccc(O)cc1)C(=O)N[C@H](CS)C(=O)N[C@@H](CC(C)C)C(=O)N[C@H](Cc1ccccc1)C(=O)O` [compound 149] (H-PL[dQ]YPY[dC]L[dF]-OH; N-terminus assumed), the max response at human CMKLR1 (setting [2]) was 1,51 DF/F0. Also, on human CMKLR1 (setting [4]), the EC50 was found to be 271 nM. Moreover, in series [1], the half-life at 50 µg/mL worked out at 30 min.
As to `CC(C)C[C@H](NC(=O)[C@H](N)Cc1ccccc1)C(=O)N1CCC[C@H]1C(=O)NCC(=O)N[C@@H](CCC(N)=O)C(=O)N[C@@H](Cc1ccc(O)cc1)C(=O)N[C@@H](C)C(=O)N[C@@H](Cc1ccccc1)C(=O)N[C@H](CO)C(=O)O` [compound 95] (H-[dF]LPGQYAF[dS]-OH; N-terminus assumed), at human CMKLR1 (setting [2]), the max response was 1,75 DF/F0. Besides, the EC50 on human CMKLR1 (setting [4]) amounted to 80.6 nM. In series [1], this compound showed a half-life at 50 µg/mL of 2440 min.
